Tests used:
[1] = target: T1, isolated PIN domain of hDIS3 (Homo sapiens, UniProt Q9Y2L1); test: hDIS3 PIN domain endonucleolytic activity assay (RNA substrate digestion, denaturing PAGE, fluorimaging); type: biochemical; conditions: 80 μM concentration; 5′ fluoresceine-labeled ss17-(A)34 substrate; 1 mM manganese
T1 construct: made in house
T1 sequence (Q9Y2L1 1-217): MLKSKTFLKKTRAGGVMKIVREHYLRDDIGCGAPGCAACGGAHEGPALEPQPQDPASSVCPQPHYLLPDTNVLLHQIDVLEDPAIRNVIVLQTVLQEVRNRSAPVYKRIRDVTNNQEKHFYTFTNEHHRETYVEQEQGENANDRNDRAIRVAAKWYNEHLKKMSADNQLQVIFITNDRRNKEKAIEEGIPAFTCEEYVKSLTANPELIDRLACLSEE
Description: FIGS. 11A-B. 2-hydroxy-(4H)-isoquinoline-1,3-dione (AClLAHYL) inhibits the endonucleolytic activity of isolated PIN domain of hDIS3. A) SDS-PAGE analysis of the recombinant hDIS3 PIN domain; B) Activity assay. 5′ fluoresceine-labeled ss17-(A)34 substrate was incubated in a buffer containing 1 mM manganese with recombinant hDIS3 PIN domain in the presence or absence of 2-hydroxy-(4H)-isoquinoline-1,3-dione. A control reaction was also performed, which contained the inhibitor but lacked any added protein. Reactions were terminated at the indicated time points, followed by denaturing PAGE and fluorimaging.
In vitro enzymatic assays of hDIS3 exoribonucleolytic activity were performed in 10 mM Tris-HCl, pH 8.0; 75 mM NaCl; 1 mM 2-mercaptoethanol, 100 μM MgCl2. Protein concentration was 0.1 μM, while substrate concentration was 0.2 μM or 2 μM for duplex and unstructured RNA molecules, respectively. For gel-based analyses, reactions were performed at 37° C. for the indicated times and then terminated by formamide loading dye Reaction products were resolved in denaturing 20% polyacrylamide, 8 M urea, 1xTBE gels. In the case of TLC-based experiment, samples were collected by mixing aliquots of the reaction mixtures with 1 μl of 0.5 M EDTA and subsequently analysed by running them on PEI-cellulose plates (Schleicher & Schuell) in 0.5 M LiCl/1M formic acid, using non-radioactive UMP as a marker. […]

[2] = test system: yeast harboring G833R mutation (dis3-G833R); test: Yeast growth assay, serial dilutions spotted on YPD plates; type: cell-based, S. cerevisiae; conditions: 1 mM in YPD plates, 30° C., 60 hours
Description: (§1) FIG. 12. […] Serial dilutions of indicated yeast strains were spotted on YPD plates and YPD plates with 2-hydroxy-(4H)-isoquinoline-1,3-dione (at 1 mM concentration) and incubated at 30° C. for 60 hours.
(§2) Yeast strains described above were grown in complete YPD medium at 30° C. overnight until OD600 reached 0.2 before spotting serial dilutions onto YPD plates. Cell growth was analyzed after 60 h of incubation at 25° C., 30° C. or 37° C. Analysis of viability for strains harboring mutations in both PIN and RNB domains of Dis3 was carried out by sporulation of ADZY713 and ADZY716 diploid strains, followed by tetrad dissection.
(§3) Yeast strains harboring G833R or R847K mutations, obtained in Example II were used for growth assays. Serial dilutions of indicated yeast strains were spotted on YPD plates and YPD plates with 2-hydroxy-(4H)-isoquinoline-1,3-dione (at 1 mM concentration) and incubated at 30° C. for 60 hours.

[3] = test system: yeast harboring R847K mutation (dis3-R847K); test: as above; type: cell-based, S. cerevisiae; conditions: 1 mM in YPD plates, 30° C., 60 hours
Description: as §1, §2, §3

Structure (SMILES): O=C1Cc2ccccc2C(=O)N1O [2-hydroxy-(4H)-isoquinoline-1,3-dione]
- inhibition of the endonucleolytic activity of human DIS3 PIN domain [1]: efficiently inhibited
- growth inhibition of yeast harboring G833R mutation [2]: complete growth inhibition
- growth inhibition of yeast harboring R847K mutation [3]: complete growth inhibition

Reference: patent US9611514B2, “Method for selection of hDIS3 PIN domain inhibitors and use of hDIS3 PIN domain inhibitors for cancer treatment” (INSTYTUT BIOCHEMII I BIOFIZYKI POLSKIEJ AKADEMII NAUK, priority 2013, dated 2017)
